The inhibition is the drop in the measured response relative to a control, in per cent. The Ki is the dissociation constant of the complex between target and ligand, obtained from inhibition or displacement. Read a low Ki as higher affinity. Broadly, the IC50 is the concentration at which inhibition is half-maximal. Read a high IC50 as a need for much substance.

The target of one assay is FKBP12 (Homo sapiens (Human), UniProt P62942). The assay can be described thus: FKBP12 PPlase assay. It counts as biochemical. The settings on record: for inhibition at 1 µM: read-out: inhibition of FKBP12 at 1 uM; for Ki: FKBP12 PPlase assay, 6 concentrations in duplicate, data fitted to a Ki curve.
Sequence of FKBP12 (P62942 whole entry, species assumed): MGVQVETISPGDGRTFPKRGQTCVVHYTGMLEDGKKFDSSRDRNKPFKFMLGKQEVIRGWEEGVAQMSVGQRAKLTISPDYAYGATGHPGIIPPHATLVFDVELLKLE
In assay [1] the test system is murine T cell proliferation (PLP peptide-stimulated lymph node cells; mTOR-driven). The assay can be described thus: Murine PLP T cell proliferation assay (PLP assay). It is filed as cell-based. The settings on record: for IC50: Mus musculus, PLP T-cell proliferation assay; for Ratio (PLP/FKBP*): PLP IC50 / FKBP12 Ki (Ki values from Example 19).
Protocol: Murine PLP T Cell Proliferation Assay
Activity of mTOR inhibitors was measured in two different antigen-specific murine T cell proliferation assays (as described in Young et al., 2000). […] In a second type of assay, lymph nodes obtained from PLP TCR transgenic mice are simulated with PLP peptide in culture in a primary stimulation assay.

Structures are written as SMILES.

Protocol for FKBP12: The first order rate equation was fitted to the absorbance data to obtain a rate constant. A catalytic rate (Kenz) was calculated from the enzymatic rate minus the background rate. Kenz v inhibitor concentration was plotted to obtain the Ki value. […] All compounds were assayed at 6 concentrations in duplicate and the data fitted to a Ki curve to afford a Ki value with standard error (SE).

With `CO[C@H]1C[C@@H]2CC[C@@H](C)[C@@](O)(O2)C(=O)C(=O)N2CCCC[C@H]2C(=O)OC2CCC(CC2)C(=O)[C@H](C)C[C@H](C)/C=C/C=C/C=C/1C` [Compound 15], the inhibition at 1 µM at FKBP12 is 31%. On FKBP12, `CO[C@H]1C[C@@H]2CC[C@@H](C)[C@@](O)(O2)C(=O)C(=O)N2CCCC[C@H]2C(=O)OC([C@H](C)Cc2ccc(CO)s2)C/C=C(\C)[C@@H](O)CC(=O)[C@H](C)C[C@H](C)/C=C/C=C/C=C/1C` (some centres unmarked) [Compound 12] gave an inhibition constant Ki of 9.5 nM. Further, in assay [1], it took 2860 nM to reach half-maximal inhibition (IC50) and the “Ratio (PLP/FKBP*)” value is 301.5789. For `CO[C@H]1C[C@@H]2CC[C@@H](C)[C@@](O)(O2)C(=O)C(=O)N2CCCC[C@H]2C(=O)OC([C@H](C)C[C@@H]2CC[C@@H](O)[C@H](OC)C2)C/C=C(\C)[C@@H](O)CC(=O)[C@H](C)C[C@H](C)/C=C/C=C/C=C/1C` (some centres unmarked) [Compound 8], the affinity at FKBP12 corresponds to a Ki of 5.9 nM. In addition, in assay [1], the 50% inhibitory concentration (IC50) was determined as 490 nM and the “Ratio (PLP/FKBP*)” value is given as 83.05. For `CO[C@H]1C[C@@H]2CC[C@@H](C)[C@](O)(CC(=O)N3CCCC[C@H]3C(=O)OC([C@H](C)C[C@@H]3CC[C@@H](O)[C@H](O)C3)C/C=C(\C)[C@@H](O)CC(=O)[C@H](C)C[C@H](C)/C=C/C=C/C=C/1C)O2` (some centres unmarked) [Compound 9], at FKBP12, the Ki was 180 nM. For `CO[C@H]1C[C@@H]2CC[C@@H](C)[C@@](O)(O2)C(=O)C(=O)N2CCCC[C@H]2C(=O)OC([C@H](C)C[C@@H]2CC[C@@H](O)[C@H](O)C2)C/C=C(\C)[C@@H](O)CC(=O)[C@H](C)C[C@H](C)/C=C/C=C/C=C/1C` (some centres unmarked) [Compound 10], the affinity on FKBP12, expressed as Ki, was 4.2 nM. Further, in assay [1], the IC50 came out at 14000 nM and the “Ratio (PLP/FKBP*)” value was 3338.333. The molecule `CO[C@H]1C[C@@H]2CC[C@@H](C)[C@@](O)(O2)C(=O)C(=O)N2CCCC[C@H]2C(=O)O[C@H]([C@H](C)C[C@H]2CC[C@H](O)CC2)C/C=C(\C)[C@@H](O)[C@@H](O)C(=O)[C@H](C)C[C@H](C)/C=C/C=C/C=C/1C` [Compound 20] displayed a Ki on FKBP12 of 18 nM. The same measure, in the same setting: the same measure for `CO[C@H]1C[C@@H]2CC[C@@H](C)[C@](O)(CC(=O)N3CCCC[C@H]3C(=O)O[C@H]([C@H](C)C[C@H]3CC[C@H](O)CC3)C/C=C(\C)[C@@H](O)CC(=O)[C@H](C)C[C@H](C)/C=C/C=C/C=C/1C)O2` [Compound 18]: 45 nM.

On FKBP12, `CO[C@H]1C[C@@H]2CC[C@@H](C)[C@](O)(CC(=O)N3CCCC[C@H]3C(=O)O[C@H](/C(C)=C/CC(O)[C@H](C)C[C@@H]3CC[C@@H](O)[C@H](O)C3)CC(=O)[C@H](C)C[C@H](C)/C=C/C=C/C=C/1C)O2` (some centres unmarked) [Compound 11] gave a Ki of 430 nM. For the same molecule, in assay [1], inhibition was half-maximal at 4180 nM (IC50) and the “Ratio (PLP/FKBP*)” value was determined as 9.721.

`CO[C@H]1C[C@@H]2CC[C@@H](C)[C@@](O)(O2)C(=O)C(=O)N2CCCC[C@H]2C(=O)OC([C@H](C)Cc2ccncc2)C/C=C(\C)[C@@H](O)CC(=O)[C@H](C)C[C@H](C)/C=C/C=C/C=C/1C` (some centres unmarked) [Compound 13]: on FKBP12, the affinity, expressed as Ki, was 13 nM. Also, in assay [1], the IC50 was 6590 nM and the “Ratio (PLP/FKBP*)” value turned out to be 506.6154. For the molecule `CO[C@H]1C[C@@H]2CC[C@@H](C)[C@@](O)(O2)C(=O)C(=O)N2CCCC[C@H]2C(=O)OC([C@H](C)C[C@H]2CC[C@H](O)CC2)C/C=C(\C)[C@@H](O)CC(=O)[C@H](C)C[C@H](C)/C=C/C=C/C=C/1C` (some centres unmarked) [Compound 5], the Ki at FKBP12 worked out at 7.9 nM.

`CO[C@@H](C[C@@H]1CC[C@@H](C)[C@](O)(C(=O)C(=O)N2CCCC[C@H]2C(=O)O[C@@H](C/C=C(\C)C=O)[C@H](C)C[C@H]2CC[C@H](O)CC2)O1)/C(C)=C/C=C/C=C/[C@@H](C)C[C@@H](C)C(=O)CO` [Compound 22]: the Ki at FKBP12 was 12 nM. `CO[C@H]1C[C@@H]2CC[C@@H](C)[C@](O)(CC(=O)N3CCCC[C@H]3C(=O)OC([C@H](C)C[C@H]3CC[C@H](O)CC3)CC(=O)[C@H](C)C[C@H](C)/C=C/C=C/C=C/1C)O2` (some centres unmarked) [Compound 6] showed a Ki on FKBP12 of 370 nM. Moreover, in assay [1], inhibition was half-maximal at 2620 nM (IC50) and the “Ratio (PLP/FKBP*)” value amounted to 7.095. For `CO[C@H]1C[C@@H]2CC[C@@H](C)[C@@](O)(O2)C(=O)C(=O)N2CCCC[C@H]2C(=O)O[C@H]([C@H](C)C[C@H]2CC[C@H](O)CC2)CC(O)CC(=O)[C@H](C)/C=C(\C)[C@@H](O)CC(=O)[C@@H](C)C[C@H](C)/C=C/C=C/C=C/1C` (some centres unmarked) [Compound 14], affinity on FKBP12 was put at a Ki of 6.5 nM. Still for that read-out and setting: the result for `C\C1=C/C=C/C=C/[C@@H](C)C[C@@H](C)C(=O)C2CCC(CC2)OC(=O)[C@@H]2CCCCN2C(=O)C(=O)[C@]2(O)O[C@@H](CC[C@H]2C)C[C@@H]1O` [Compound 16] reads 460 nM.

On to `CO[C@@H](C[C@@H]1CC[C@@H](C)[C@](O)(CC(=O)N2CCCC[C@H]2C(=O)O)O1)/C(C)=C/C=C/C=C/[C@@H](C)C[C@H]1CC[C@H](O)CC1` [Compound 3], for which the inhibition at 1 µM at FKBP12 was found to be 25%. The molecule also yielded an IC50 in assay [1] of 1450 nM. `CC/C1=C\CC(/C(C)=C/C(C)C(C)O)OC(=O)C2CCCCN2C(=O)C(=O)C2(O)OC(CCC2C)CC(O)C(C)C(O)CC(O)CC(O)/C(C)=C/C(C)CC(C)C1O` (centres unmarked) [Meridamycin] came in with a Ki at FKBP12 of 10 nM. Same read-out and setting: the result for `C/C1=C\C[C@@H]([C@H](C)C[C@H]2CC[C@H](O)CC2)OC(=O)[C@@H]2CCCCN2C(=O)C(=O)[C@]2(O)O[C@@H](CC[C@H]2C)C[C@H](O)/C(C)=C/C=C/C=C/[C@@H](C)C[C@@H](C)C(=O)C[C@@H]1O` [Compound 19] reads 7.7 nM. Molecule `CO[C@H]1C[C@@H]2CC[C@@H](C)[C@@](O)(O2)C(=O)C(=O)N2CCCC[C@H]2C(=O)OC([C@H](C)C[C@H]2CC[C@H](O)CC2)C[C@@H](O)CC(=O)[C@H](C)C[C@H](C)/C=C/C=C/C=C/1C` (some centres unmarked) [Compound 4] returned an IC50 in assay [1] of 4460 nM. In assay [1], `CO[C@H]1C[C@@H]2CC[C@@H](C)[C@@](O)(O2)C(=O)C(=O)N2CCCC[C@H]2C(=O)O[C@H]([C@H](C)C[C@@H]2CC[C@@H](O)[C@H](OC)C2)CC(=O)[C@H](C)/C=C(\C)[C@@H](O)[C@@H](OC)C(=O)[C@H](C)C[C@H](C)/C=C/C=C/C=C/1C` [Rapamycin, rapamycin, reference compound] came in with an IC50 of 0.024 nM.
